Measured values taken from patent US8962608B2, “Cycloalkylnitrile pyrazole carboxamides as janus kinase inhibitors” (Merck Sharp & Dohme Corp., priority 2011, dated 2015).

Columns and labels:
[1] = molecular target: JAK2 (recombinant purified GST-tagged catalytic domain) (Homo sapiens (Human), UniProt O60674); test: biochemical;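 further: biochemical JAK kinase assay with HTRF detection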
[2] = molecular target: JAK1 (recombinant purified GST-tagged catalytic domain) (Homo sapiens (Human), UniProt P23458); test: biochemical;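 further: biochemical assay with HTRF read-out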
Chain of JAK1 (recombinant purified GST-tagged catalytic domain) (P23458 875-1153): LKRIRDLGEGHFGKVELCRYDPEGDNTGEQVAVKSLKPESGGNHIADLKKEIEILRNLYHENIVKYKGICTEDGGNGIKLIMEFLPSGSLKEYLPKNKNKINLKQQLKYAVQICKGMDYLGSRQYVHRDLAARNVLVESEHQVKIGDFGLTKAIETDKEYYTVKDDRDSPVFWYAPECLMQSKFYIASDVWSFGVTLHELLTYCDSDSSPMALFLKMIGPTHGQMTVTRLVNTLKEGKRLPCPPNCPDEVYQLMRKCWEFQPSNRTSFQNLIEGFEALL

Chain of JAK2 (recombinant purified GST-tagged catalytic domain) (O60674 849-1124): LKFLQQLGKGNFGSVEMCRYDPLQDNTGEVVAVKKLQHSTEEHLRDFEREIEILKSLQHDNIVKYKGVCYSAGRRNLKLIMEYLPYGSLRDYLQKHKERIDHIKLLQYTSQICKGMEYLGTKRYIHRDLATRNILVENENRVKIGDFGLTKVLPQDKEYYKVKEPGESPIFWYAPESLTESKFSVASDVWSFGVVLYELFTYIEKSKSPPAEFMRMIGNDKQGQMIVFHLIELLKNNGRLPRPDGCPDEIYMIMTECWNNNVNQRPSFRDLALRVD

| SMILES | IC50 [1] | IC50 [2] |
| --- | --- | --- |
| N#C[C@@H]1C[C@@H](NCC2CCC2)CC[C@H]1n1cc(C(N)=O)c(Nc2ccc(C(F)(F)F)cc2)n1 (single isomer, unassigned) [Example 30-16, 1-{(1R,2R,4S or 1S,2S,4R)-2-cyano-4-[(cyclobutyl-methyl)amino]cyclohexyl}-3-{[4-(trifluoro-methyl)phenyl]amino}-1H-pyrazole-4-carboxamide] | 242 nM | 2 nM |
| N#C[C@H]1C[C@@H](C(=O)N2CC3(COC3)C2)CC[C@@H]1n1cc(C(N)=O)c(Nc2ccc(Cl)cc2)n1 (single isomer, unassigned) [Example 35-37, 3-[(4-chlorophenyl)amino]-1-[(1S,2S,4S or 1R,2R,4R)-2-cyano-4-(2-oxa-6-azaspiro[3.3]hept-6-ylcarbonyl)cyclohexyl]-1H-pyrazole-4-carboxamide] | > 500 nM | 43 nM |
| Cn1cc(-c2cncc(Nc3nn(C4CCCC[C@@H]4C#N)cc3C(N)=O)c2)cn1 (single isomer, unassigned) [Example 21-1, 1-[(1S,2S or 1R,2R)-2-Cyanocyclohexyl]-3-{[5-(1-methyl-1H-pyrazol-4-yl)pyridin-3-yl]amino}-1H-pyrazole-4-carboxamide] | 73 nM | 6 nM |
| CC1CN([C@H]2CC[C@H](n3cc(C(N)=O)c(Nc4ccc(C(F)(F)F)cc4)n3)[C@@H](C#N)C2)C1 (single isomer, unassigned) [Example 28-121, 1-[(1S,2S,4S or 1R,2R,4R)-2-cyano-4-(3-methylazetidin-1-yl)cyclohexyl]-3-{[4-(trifluoromethyl)phenyl]amino}-1H-pyrazole-4-carboxamide] | 61 nM | 1 nM |
| CC(C)(C)NC(=O)[C@@H]1CC[C@@H](n2cc(C(N)=O)c(Nc3ccc(Cl)cc3)n2)[C@H](C#N)C1 (single isomer, unassigned) [Example 35-35, 1-[(1R,2R,4R or 1S,2S,4S)-4-(tert-butylcarbamoyl)-2-cyanocyclohexyl] 3-[(4-chlorophenyl)amino]-1H-pyrazole-4-carboxamide] | 425 nM | 47 nM |
| N#C[C@H]1CCCC[C@@H]1n1cc(C(N)=O)c(Nc2ccnnc2)n1 (single isomer, unassigned) [Example 17-53, 1-[(1S,2S or 1R,2R)-2-cyanocyclohexyl]-3-(pyridazin-4-ylamino)-1H-pyrazole-4-carboxamide] | 28 nM | 3 nM |
| N#C[C@H]1CC(N2CC[C@@H](F)C2)CC[C@@H]1n1cc(C(N)=O)c(Nc2ccc(S(=O)(=O)C(F)(F)F)cc2)n1 (single isomer, unassigned) [Example 28-159, 1-{(1S,2S or 1R,2R)-2-cyano-4-[(3R)-3-fluoropyrrolidin-1-yl]cyclohexyl}-3-({4-[(trifluoro-methyl)sulfonyl]phenyl}amino)-1H-pyrazole-4-carboxamide] | 18 nM | 2 nM |
| N#C[C@H]1C[C@H](OC(=O)NC2CCCCC2)CCC1n1cc(C(N)=O)c(Nc2ccc(F)cc2)n1 (mixture of isomers) [Example 34-5, (1R,3S,4S and 1S,3R,4R)-4-{4-carbamoyl-3-[(4-fluorophenyl)amino]-1H-pyrazol-1-yl}-3-cyanocyclohexyl cyclohexylcarbamate] | 88 nM | 7 nM |
| N#C[C@H]1C[C@@H](C(=O)NC2CC(F)(F)C2)CC[C@@H]1n1cc(C(N)=O)c(Nc2ccc(Cl)cc2)n1 (single isomer, unassigned) [Example 35-20, 3-[(4-chlorophenyl)amino]-1-{(1S,2S,4S or 1R,2R,4R)-2-cyano-4-[(3,3-difluorocyclobutyl)carbamoyl]cyclohexyl}-1H-pyrazole-4-carboxamide] | 172 nM | 21 nM |
| CN[C@@H]1CCC(n2cc(C(N)=O)c(Nc3ccc(F)cc3)n2)[C@@H](C#N)C1 (mixture of isomers) [Example 27-3, 1-[(1S,2S,4R and 1R,2R,4S)-2-cyano-4-(methylamino)cyclohexyl]-3-[(4-fluorophenyl)amino]-1H-pyrazole-4-carboxamide] | 25 nM | 0.8 nM |
| CC(C)(c1ccc(Nc2nn([C@H]3CC[C@H](O)C[C@@H]3C#N)cc2C(N)=O)cc1)C(O)C(F)(F)F (single isomer, unassigned) [Example 33-15, 1-[(1S,2S,4S or 1R,2R,4R)-2-cyano-4-hydroxycyclohexyl]-3-{[4-(3,3,3-trifluoro-(2R or 2S)-hydroxy-1,1-dimethylpropyl)phenyl]amino}-1H-pyrazole-4-carboxamide] | 2 nM | 0.5 nM |
| N#Cc1ccc(Nc2nn([C@H]3CCCC[C@H]3C#N)cc2C(N)=O)cc1 (racemic) [Example 17-16, 1-[(1S,2R and 1R,2S)-2-cyanocyclohexyl]-3-[(4-cyanophenyl)amino]-1H-pyrazole-4-carboxamide] | 36 nM | 11 nM |
| N#C[C@H]1C[C@H](O)CC[C@@H]1n1cc(C(N)=O)c(Nc2ccc(C(F)F)nc2)n1 (single isomer, unassigned) [Example 25-16, 1-[(1S,2S,4R or 1R,2R,4S)-2-cyano-4-hydroxycyclohexyl]-3-{[6-(difluoromethyl)pyridin-3-yl]amino}-1H-pyrazole-4-carboxamide] | 10 nM | 3 nM |
| N#C[C@H]1CCCC[C@@H]1n1cc(C(N)=O)c(Nc2ccc(Cl)cc2)n1 (single isomer, unassigned) [Example 17-107, 3-[(4-chlorophenyl)amino]-1-[(1S,2S or 1R,2R)-2-cyanocyclohexyl]-1H-pyrazole-4-carboxamide] | 11 nM | 0.95 nM |
| N#C[C@H]1C[C@@H](N2CCC2)CC[C@@H]1n1cc(C(N)=O)c(Nc2ccc(OC(F)(F)F)cc2)n1 (single isomer, unassigned) [Example 28-58, 1-[(1S,2S,4S or 1R,2R,4R)-4-azetidin-1-yl-2-cyanocyclohexyl]-3-{[4-(trifluoromethoxy)phenyl]amino}-1H-pyrazole-4-carboxamide] | 23 nM | 0.7 nM |
| CC(=O)N1CCN(S(=O)(=O)c2ccc(Nc3nn([C@H]4CCCC[C@@H]4C#N)cc3C(N)=O)cc2)CC1 (single isomer, unassigned) [Example 17-89, 3-({4-[(4-acetylpiperazin-1-yl)sulfonyl]phenyl}amino)-1-[(1R,2R or 1S,2S)-2-cyanocyclohexyl]-1H-pyrazole-4-carboxamide] | 1 nM | 0.5 nM |
| N#C[C@H]1CCCC[C@@H]1n1cc(C(N)=O)c(Nc2cncc(Cl)c2)n1 (single isomer, unassigned) [Example 17-47, 3-[(5-chloropyridin-3-yl)amino]-1-[(1S,2S or 1R,2R)-2-cyanocyclohexyl]-1H-pyrazole-4-carboxamide] | 39 nM | 7 nM |
| N#C[C@H]1C[C@@H](O)CC[C@@H]1n1cc(C(N)=O)c(Nc2ccc([C@H](O)C(F)(F)F)cc2)n1 (single isomer, unassigned) [Example 33-10, 1-[(1S,2S,4S or 1R,2R,4R)-2-cyano-4-hydroxycyclohexyl]-3-({4-[(1S)-2,2,2-trifluoro-1-hydroxyethyl]phenyl}amino)-1H-pyrazole-4-carboxamide] | 2 nM | 0.3 nM |
| N#C[C@H]1CCCC(F)[C@@H]1n1cc(C(N)=O)c(Nc2ccccc2)n1 (mixture of isomers) [Example 23-1, 1-[(1R,2S and 1S,2R)-2-Cyano-6-fluorocyclohexyl]-3-(phenylamino)-1H-pyrazole-4-carboxamide] | 60 nM | 5 nM |
| N#C[C@H]1C[C@H](N2CC3(CCC3)C2)CC[C@@H]1n1cc(C(N)=O)c(Nc2ccnc(F)c2)n1 (single isomer, unassigned) [Example 28-143, 1-[(1S,2S,4R or 1R,2R,4S)-4-(2-azaspiro[3.3]hept-2-yl)-2-cyanocyclohexyl]-3-[(2-fluoropyridin-4-yl)amino]-1H-pyrazole-4-carboxamide] | 122 nM | 1 nM |
| CN(CC(F)F)[C@H]1CC[C@H](n2cc(C(N)=O)c(Nc3ccc(S(=O)(=O)C(F)(F)F)cc3)n2)[C@@H](C#N)C1 (single isomer, unassigned) [Example 28-114, 1-{(1S,2S,4S or 1R,2R,4R)-2-cyano-4-[(2,2-difluoroethyl)(methyl)amino]cyclo-hexyl}-3-({4-[(trifluoro-methyl)sulfonyl]phenyl}amino)-1H-pyrazole-4-carboxamide] | 29 nM | 3 nM |
| N#C[C@H]1CCCC[C@@H]1n1cc(C(N)=O)c(Nc2ccc(S(=O)(=O)NCc3ccccc3Cl)cc2)n1 (single isomer, unassigned) [Example 17-91, 3-({4-[(2-chlorobenzyl)sulfamoyl]phenyl}amino)-1-[(1R,2R or 1S,2S)-2-cyanocyclohexyl]-1H-pyrazole-4-carboxamide] | 2 nM | 0.5 nM |
| CC(C)(C)N[C@H]1CCC(n2cc(C(N)=O)c(Nc3ccc(C(F)(F)F)cc3)n2)[C@@H](C#N)C1 (single isomer, unassigned) [Example 28-204, 1-[(1S,2S,4S or 1R,2R,4R)-4-(tert-butylamino)-2-cyanocyclohexyl]-3-{[4-(trifluoromethyl)phenyl]amino}-1H-pyrazole-4-carboxamide] | 26 nM | 0.2 nM |
| N#C[C@H]1CCCC[C@@H]1n1cc(C(N)=O)c(Nc2ccc(S(=O)(=O)C(F)(F)F)c(CO)c2)n1 (racemic) [Example 17-17, 1-[(1S,2S and 1R,2R)-2-cyanocyclohexyl]-3-({3-(hydroxymethyl)-4-[(trifluoromethyl)sulfonyl]phenyl}amino)-1H-pyrazole-4-carboxamide] | 5 nM | 1 nM |
| CN(C1CCC1)[C@H]1CC[C@@H](n2cc(C(N)=O)c(Nc3ccc(C(F)(F)F)cc3)n2)[C@H](C#N)C1 (single isomer, unassigned) [Example 30-8, l-{(1R,2R,4S or 1S,2S,4R)-2-cyano-4-[cyclo-butyl(methyl)amino]cyclohexyl}-3-{[4-(trifluoro-methyl)phenyl]amino}-1H-pyrazole-4-carboxamide] | 240 nM | 6 nM |
